Carcinogen call data for three compounds are collected here from PubChem BioAssay AID1259411 (Chemical Carcinogenesis Research Information System (CCRIS), 2018).

The structures appear in SMILES notation. The source made the active and inactive calls. The rule behind the calls is not given here.

The data set concerns rodent carcinogenicity bioassays, tumor incidence. Description: CCRIS carcinogenicity studies. In short, it runs like this:
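NCI-built, expert-reviewed records of carcinogenicity and related test outcomes (mutagenicity, tumor promotion/inhibition) compiled from published and report sources, historical span 1985-2011, not updated.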

In the case of `CCC1(c2ccccc2)C(=O)N=C(O)NC1=O` (configuration not stated), the carcinogen call is “active; positive” (Species: MOUSE, Route: ORAL, Tumor Site: Type of Lesion: LIVER); “inactive; negative” (Species: MOUSE, Strain/Sex: C3H/HE/MALE, Route: ORAL, Dose: 0, 85 MG/KG/D IN DIET FOR DURATION OF STUDY (STUDY DURATION: 91 WK)); “inactive; negative” (Species: MOUSE, Strain/Sex: C57BL/MALE, Route: ORAL, Dose: 0, 85 MG/KG/D IN DIET FOR DURATION OF STUDY (STUDY DURATION: 100 WK)); “active; positive” (Species: RAT, Route: ORAL, Tumor Site: Type of Lesion: LIVER); “inactive; negative” (Species: RAT, Strain/Sex: F344/MALE, Route: ORAL, Dose: 0, 8, 30, 125, 500 PPM IN DIET FOR 104 WK (STUDY DURATION: 104 WK), Dose: 0, 8, 30, 125, 500 PPM IN DIET FOR 104 WK (STUDY DURATION: 104 WK)).
In the case of `O=[N+]([O-])c1c2ccccc2c2ccc3cccc4ccc1c2c43`, the carcinogen call by setting is: (Species: MOUSE, Strain/Sex: ICR/FEMALE, Route: INTRAPERITONEAL, Dose: 0, 14 UG TOTAL DOSE (2 UG/5 µL, 4 UG/10 µL, 8 UG/20 µL DMSO ON DAYS 1,8 AND 15), 70 UG TOTAL DOSE (10 UG/5 µL, 20 UG/10, Dose: 0, 14 UG TOTAL DOSE (2 UG/5 µL, 4 UG/10 µL, 8 UG/20 µL DMSO ON DAYS 1,8 AND 15), 70 UG TOTAL DOSE (10 UG/5 µL, 20 UG/10) “inactive; negative”; (Species: MOUSE, Strain/Sex: ICR/MALE, Route: INTRAPERITONEAL, Dose: 0, 14 UG TOTAL DOSE (2 UG/5 µL, 4 UG/10 µL, 8 UG/20 µL DMSO ON DAYS 1,8 AND 15), 70 UG TOTAL DOSE (10 UG/5 µL, 20 UG/10, Dose: 0, 14 UG TOTAL DOSE (2 UG/5 µL, 4 UG/10 µL, 8 UG/20 µL DMSO ON DAYS 1,8 AND 15), 70 UG TOTAL DOSE (10 UG/5 µL, 20 UG/10) “inactive; negative”.
As for `Cc1cc(Cl)ccc1OCC(=O)O`, the carcinogen call (Species: MOUSE, Strain/Sex: B6C3F1/FEMALE, Route: ORAL, Dose: 0, 20, 100, 500 PPM IN DIET FOR 104 WK (STUDY DURATION: 104 WK), Dose: 0, 20, 100, 500 PPM IN DIET FOR 104 WK (STUDY DURATION: 104 WK)) was “inactive; negative”; the carcinogen call (Species: MOUSE, Strain/Sex: B6C3F1/MALE, Route: ORAL, Dose: 0, 20, 100, 500 PPM IN DIET FOR 104 WK (STUDY DURATION: 104 WK), Dose: 0, 20, 100, 500 PPM IN DIET FOR 104 WK (STUDY DURATION: 104 WK)) is “inactive; negative”; the carcinogen call (Species: NEWT, Route: IMMERSION, Dose: 0, 100, 200, 400 PPM 4 D/WK FOR 12 MO (STUDY DURATION: 24 MO), Dose: 0, 100, 200, 400 PPM 4 D/WK FOR 12 MO (STUDY DURATION: 24 MO)) is “inactive; negative”; the carcinogen call (Species: RAT, Strain/Sex: WISTAR/FEMALE, Route: ORAL, Dose: 0, 20, 80, 320 PPM IN DIET FOR 104 WK (STUDY DURATION: 104 WK), Dose: 0, 20, 80, 320 PPM IN DIET FOR 104 WK (STUDY DURATION: 104 WK)) was “inactive; negative”; the carcinogen call (Species: RAT, Strain/Sex: WISTAR/MALE, Route: ORAL, Dose: 0, 20, 80, 320 PPM IN DIET FOR 104 WK (STUDY DURATION: 104 WK), Dose: 0, 20, 80, 320 PPM IN DIET FOR 104 WK (STUDY DURATION: 104 WK)) is “inactive; negative”.
